From PubChem BioAssay (NCI)
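A five-concentration, 48-hour dose response in 96-well plates underlies each endpoint, interpolated linearly between surrounding concentrations. Definition used: TGI = concentration required for complete inhibition of growth.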

Experiments:
Assay in all cases: growth of human tumour cells (NCI), 48 h
786-0 renal = tested on: 786-0 renal
A498 renal = tested on: A498 renal
A549 NSCLC = tested on: A549 NSCLC
ACHN renal = tested on: ACHN renal
CAKI-1 renal = tested on: CAKI-1 renal
CCRF-CEM leukemia = tested on: CCRF-CEM leukemia
COLO 205 colon = tested on: COLO 205 colon
DU-145 prostate = tested on: DU-145 prostate
EKVX NSCLC = tested on: EKVX NSCLC
HCT-116 colon = tested on: HCT-116 colon
HL-60(TB) leukemia = tested on: HL-60(TB) leukemia
HOP-62 NSCLC = tested on: HOP-62 NSCLC
HOP-92 NSCLC = tested on: HOP-92 NSCLC
HS 578T breast = tested on: HS 578T breast
HT29 colon = tested on: HT29 colon
IGROV1 ovarian = tested on: IGROV1 ovarian
K-562 leukemia = tested on: K-562 leukemia
KM12 colon = tested on: KM12 colon
LOX IMVI melanoma = tested on: LOX IMVI melanoma
M14 melanoma = tested on: M14 melanoma
MALME-3M melanoma = tested on: MALME-3M melanoma
MCF7 breast = tested on: MCF7 breast
MDA-MB-231 breast = tested on: MDA-MB-231 breast
MDA-MB-435 = tested on: MDA-MB-435
MDA-N = tested on: MDA-N
MOLT-4 leukemia = tested on: MOLT-4 leukemia
NCI-H226 lung = tested on: NCI-H226 lung
NCI-H23 lung = tested on: NCI-H23 lung
NCI-H460 lung = tested on: NCI-H460 lung
NCI-H522 lung = tested on: NCI-H522 lung
NCI/ADR-RES ovarian = tested on: NCI/ADR-RES ovarian
OVCAR-3 ovarian = tested on: OVCAR-3 ovarian
OVCAR-4 ovarian = tested on: OVCAR-4 ovarian
OVCAR-5 ovarian = tested on: OVCAR-5 ovarian
OVCAR-8 ovarian = tested on: OVCAR-8 ovarian
PC-3 prostate = tested on: PC-3 prostate
RPMI-8226 leukemia = tested on: RPMI-8226 leukemia
RXF 393 renal = tested on: RXF 393 renal
SF-268 CNS = tested on: SF-268 CNS
SF-295 CNS = tested on: SF-295 CNS
SF-539 CNS = tested on: SF-539 CNS
SK-MEL-28 melanoma = tested on: SK-MEL-28 melanoma
SK-MEL-5 melanoma = tested on: SK-MEL-5 melanoma
SK-OV-3 ovarian = tested on: SK-OV-3 ovarian
SN12C renal = tested on: SN12C renal
SNB-19 CNS = tested on: SNB-19 CNS
SNB-75 CNS = tested on: SNB-75 CNS
SR leukemia = tested on: SR leukemia
SW-620 colon = tested on: SW-620 colon
T-47D breast = tested on: T-47D breast
TK-10 renal = tested on: TK-10 renal
UACC-257 melanoma = tested on: UACC-257 melanoma
UACC-62 melanoma = tested on: UACC-62 melanoma
UO-31 renal = tested on: UO-31 renal
HCC-2998 colon = tested on: HCC-2998 colon
HCT-15 colon = tested on: HCT-15 colon
SK-MEL-2 melanoma = tested on: SK-MEL-2 melanoma
U251 CNS = tested on: U251 CNS

Measured: TGI

CC(CO)CCNc1ncnc2c1ncn2CCC(=O)O (stereo not given)
not listed: HCC-2998 colon | HCT-15 colon | SK-MEL-2 melanoma | U251 CNS
> 100 µM: all other assays above

Cc1ccc(C(=O)N/N=C(\N=Nc2cccc(C)c2)c2ccc(N(CCC#N)CCC#N)cc2C)cc1
61.4 µM: SK-MEL-28 melanoma
not listed: 786-0 renal | HCT-116 colon | MALME-3M melanoma | NCI-H522 lung | SN12C renal
> 100 µM: all other assays above

Cc1oc2c(cc(O)c3ccccc32)c2cccc1-2
34.8 µM: MDA-MB-231 breast
76.7 µM: M14 melanoma
not listed: IGROV1 ovarian | K-562 leukemia | NCI-H226 lung | NCI-H522 lung | OVCAR-4 ovarian | RXF 393 renal | UACC-62 melanoma | UO-31 renal | SK-MEL-2 melanoma
> 100 µM: all other assays above

COc1cc(Br)c(CC2C3=C(CCN2C(=O)C2CCC2)CC2(CC3)OCCO2)cc1O (stereo not given)
34.8 µM: COLO 205 colon
44.4 µM: RXF 393 renal
64 µM: MDA-MB-435
60.3 µM: HT29 colon
98.4 µM: NCI-H522 lung
76.8 µM: SNB-75 CNS
79.7 µM: NCI-H23 lung
not listed: UO-31 renal
> 100 µM: all other assays above

CCCCNC(=O)OCCN=C1c2ccccc2C(Br)C(Br)c2ccccc21 (stereo not given)
52.9 µM: MALME-3M melanoma
46.1 µM: OVCAR-3 ovarian
62.4 µM: ACHN renal
57 µM: MDA-MB-435
73 µM: NCI-H522 lung
58.9 µM: OVCAR-8 ovarian
37.1 µM: HOP-92 NSCLC
49.2 µM: CAKI-1 renal
37.6 µM: HL-60(TB) leukemia
84.1 µM: MOLT-4 leukemia
62.5 µM: U251 CNS
38.2 µM: HCT-15 colon
34.8 µM: RXF 393 renal
28.3 µM: 786-0 renal
58.3 µM: HT29 colon
59.6 µM: OVCAR-4 ovarian
55.3 µM: SNB-19 CNS
40.2 µM: M14 melanoma
44.7 µM: COLO 205 colon
31.7 µM: MDA-N
76.2 µM: UACC-257 melanoma
60.5 µM: HCT-116 colon
62.1 µM: RPMI-8226 leukemia
50.3 µM: SK-MEL-5 melanoma
47.2 µM: LOX IMVI melanoma | NCI/ADR-RES ovarian
52.2 µM: TK-10 renal
not listed: UO-31 renal
> 100 µM: all other assays above
